Read-outs that look alike come from different tables or passages of the source.
What was measured:
HepG2-A16-CD81EGFP cells = experiment: cells; conditions: Homo sapiens, HepG2, read-out: % inhibition
[1] = tested on: Plasmodium berghei (Pb-Luc) exoerythrocytic-stage parasites; experiment: microbe, parasite or virus in culture
[2] = read-out: Inhibition% @ 50 uM rep1
[3] = read-out: Inhibition% @ 50 uM rep2

Compound | inhibition at 50 µM (HepG2-A16-CD81EGFP cells) | inhibition at 50 µM [1, 2] | inhibition at 50 µM [1, 3]
CCn1c2c(c(=N)c3c1CCC3)CCCC2 [MMV000340] | 75.3% | 102% | 102%
CCOc1ccc2c(c1)CN(Cc1ccc(Cl)cc1)CO2 [MMV000443] | 95.5% | 102% | 104%
COc1ccc(-c2cc(=O)oc3c4c(ccc23)OCN(Cc2ccc(F)cc2)C4)cc1 [MMV000604] | 57.1% | 100% | 101%
COc1ccc(C(O)(CCC(C)C)C(CN2CCOCC2)c2ccc(Cl)cc2)cc1 (stereo not drawn) [MMV000617] | 98.4% | 103% | 103%
CCCCCCC(O)(c1ccc(F)cc1)C(CN1CCOCC1)c1ccccc1 (stereo not drawn) [MMV000621] | 98.1% | 104% | 103%
COc1ccc2sc(N(Cc3cccnc3)C(=O)c3ccc(C#N)cc3)nc2c1 [MMV001239] | 63.2% | 73% | 85%
O=C1c2ccccc2C2=Nc3ccccc3SC(c3cccc(F)c3)C12 (stereo not drawn) [MMV006389] | 96.2% | 102% | 103%
CCOc1ccc2nc(C)cc(Nc3ccc(Br)cc3)c2c1 [MMV006522] | 98.8% | 102% | 104%
CCOc1c(Br)cc(C2C(C(=O)OC)=CN(C)C=C2C(=O)OC)cc1OC [MMV006764] | 31.2% | 103% | 103%
OC1=C2C(=Nc3ccccc3SC2c2ccc(Br)cc2)c2ccccc21 (stereo not drawn) [MMV007127] | 64.3% | 103% | 103%
COc1ccc(OC)c(C2C3=C(CC(C)(C)CC3=O)N(c3ccc(Cl)c(Cl)c3)C3=C2C(=O)CC(C)(C)C3)c1 [MMV007208] | -4.26% | -11% | -11%
Cc1cccc(N2C(=O)C3C(C2=O)C2(c4ccccc4)C(=O)C3(c3ccccc3)C(c3ccc4c(c3)OCO4)=C2c2ccc3c(c2)OCO3)c1 (stereo not drawn) [MMV007228] | -4.28% | 57% | 57%
Clc1ccc2c(N3CCCC3)ccnc2c1 [MMV007363] | 39.1% | 91% | 94%
Cc1ccccc1OCCSc1nc2ccc(NC(=O)c3cccs3)cc2s1 [MMV007396] | 37.1% | 103% | 104%
COc1cc2c3cc1Oc1c(OC)c(OC)cc4c1C(Cc1ccc(O)c(c1)Oc1ccc(cc1)CC3N(C)CC2)N(C)CC4 (stereo not drawn) [MMV007474] | 99.3% | 104% | 104%
O=C(Nc1ccc(C23CC4CC(CC(c5ccccc5)(C4)C2)C3)cc1)c1cccs1 [MMV007574] | 83.6% | 103% | 103%
Cc1ccccc1OCCSc1nc2ccc(NC(=O)c3ccccc3)cc2s1 [MMV007577] | 67.4% | 103% | 103%
CCCCc1c(CCC)c(=N)c2ccccc2n1C [MMV007764] | 83.9% | 103% | 103%
CCOc1ccccc1NC(=O)CN1CCN(C(=O)c2ccco2)CC1 [MMV007791] | -15% | 16% | 43%

Compound | inhibition at 50 µM (HepG2-A16-CD81EGFP cells) | inhibition at 50 µM [1, 2] | inhibition at 50 µM [1, 3]
CCCCN(CCCC)S(=O)(=O)c1ccc(NC(=O)c2ccco2)cc1 [MMV007881] | 94.7% | 98% | 99%
CN1C=C(c2ccc3ccccc3n2)C(c2c[nH]c3ccccc23)c2ccccc21 (stereo not drawn) [MMV008160] | 91.2% | 103% | 104%
COc1cc(OC)cc(N2C(=O)N(Cc3ccc(C(C)(C)C)cc3)c3ccccc3S2(=O)=O)c1 [MMV008173] | -9.98% | 78% | 88%
COc1ccc(C2C(C(=O)Nc3cccc(OC)c3)c3ccccc3C(=O)N2C2CCCCC2)cc1 (stereo not drawn) [MMV008455] | 28% | 94% | 92%
CCCn1c(=N)c(C(=O)NC2CCCCC2)cc2c(=O)n3cccc(C)c3nc21 [MMV008829] | -21% | 54% | 45%
CC1CCN(Cc2c(O)ccc3cc(-c4nc5ccccc5s4)c(=O)oc23)CC1 [MMV009127] | -10.1% | 75% | 76%
COc1cccc(Nc2nc(N)c3ccccc3n2)c1 [MMV019199] | 88.3% | 98% | 99%
COc1ccc(-c2cn3c(C(=O)Nc4ccccc4Cl)c(-c4ccccc4)c4c3n2CCCC4)cc1 [MMV020403] | 52.5% | 102% | 103%
Nc1nc(Nc2cccc(F)c2)nc2ccccc12 [MMV080034] | 81.8% | 102% | 103%
Cc1cc(N2CCCC2)nc(Nc2ccc(NC(=O)CCc3ccccc3)cc2)n1 [MMV396669] | 96.9% | 103% | 103%
N=c1n(CCN2CCCCC2)c2ccccc2n1CC(=O)c1ccc(Cl)c(Cl)c1 [MMV396723] | 96.7% | 101% | 102%
Nc1ccn([C@@H]2O[C@H](CO)[C@@H](O)[C@H]2O)c(=O)n1 [MMV638723] | 3.04% | 30% | 19%
CCN(CC)CCCNc1ccnc2cc3ccccc3cc12 [MMV665783] | 31.7% | 90% | 95%
O=c1cc(NC2CCN(CCCc3ccccc3)CC2)c2cc(Cl)ccc2o1 [MMV665786] | 80.6% | 100% | 103%
CCCCOC(=O)c1ccc(Nc2cc(C)nc3ccc(OC)cc23)cc1 [MMV665797] | 95.1% | 100% | 101%
Oc1ccc(Br)cc1CN1CCN(Cc2ccc(Cl)cc2)CC1 [MMV665809] | 93.9% | 103% | 103%
O=C(Nc1cccc(C2=NCCN2)c1)Nc1cccc(C2=NCCN2)c1 [MMV665810] | 48.2% | 61% | 83%
CCc1ccc(CNCC(O)c2ccccc2)cc1 (stereo not drawn) [MMV665812] | 94.8% | 98% | 99%
Cn1c(C(=O)c2cccc3ccccc23)nc2ccccc21 [MMV665824] | 35.6% | 96% | 98%

Compound | inhibition at 50 µM (HepG2-A16-CD81EGFP cells) | inhibition at 50 µM [1, 2] | inhibition at 50 µM [1, 3]
COc1ccc(C=C2SC(Nc3ccccc3)=NC2=O)cc1 [MMV665836] | 83.2% | 103% | 103%
CCOc1c(Cl)cc(CNC(C)C(O)c2ccccc2)cc1OC (stereo not drawn) [MMV665857] | 98.7% | 102% | 103%
Cn1c(=O)n(C)c2cc(CNCCNc3ccnc4cc(Cl)ccc34)ccc21 [MMV665875] | 45.3% | 92% | 92%
COc1ccc(CNC(=O)c2cc3c(=O)n4ccccc4nc3n(CCc3ccccc3)c2=N)cc1 [MMV665881] | 1.19% | 68% | 76%
COc1cc(C(=O)Nc2ccc(-c3nc4ccccc4[nH]3)cc2)cc(OC)c1OC [MMV665898] | 69.9% | 99% | 101%
COc1ccc(C(=O)C2CC2c2ccc(Cl)cc2)cc1 (stereo not drawn) [MMV665924] | 38.1% | 79% | 83%
O=C(CCl)NCCOc1ccc(Cl)cc1Cl [MMV665927] | 91.7% | 100% | 99%
COc1ccc(CN2CCN(Cc3ccccc3)CC2)c(O)c1 [MMV665944] | 85.9% | 69% | 72%
Oc1ccc(C(=C(Cl)Cl)c2ccc(O)cc2)cc1 [MMV665949] | 87.2% | 98% | 99%
O=C(Cc1ccccc1)NC(c1ccc(Cl)cc1)c1c(O)ccc2ccccc12 (stereo not drawn) [MMV665972] | 97.4% | 101% | 101%
OC1CCCCC1C1(NC(=S)Nc2ccccc2)CCCCC1 (stereo not drawn) [MMV665980] | 82.2% | 104% | 104%
CCCCCCc1cc(O)c2c3c(c(=O)oc2c1)CCC(C)C3 (stereo not drawn) [MMV665987] | 95.8% | 103% | 104%
Cc1nc2ccccc2c(O)c1CC=C(Cl)Cl [MMV665994] | 31.7% | 100% | 102%
COc1ccc(C(=O)NC(c2ccccc2Cl)c2cc(Cl)c3cccnc3c2O)cc1 (stereo not drawn) [MMV666022] | 99.5% | 103% | 104%
OC(Cn1nnc2ccccc21)Cn1c2ccc(Br)cc2c2cc(Br)ccc21 (stereo not drawn) [MMV666025] | 43.6% | 99% | 97%
COc1ccc(CN2CCCC(C(=O)c3ccc(C(F)(F)F)cc3)C2)c(O)c1 (stereo not drawn) [MMV666060] | 94.3% | 104% | 104%
O=C(NC1CCCCC1)C(c1cccs1)N(CCc1ccccc1)C(=O)c1ccco1 (stereo not drawn) [MMV666106] | 76.6% | 102% | 103%
CCOC(=O)C1(Cc2ccccc2)CCN(Cc2cccc(OC)c2O)CC1 [MMV666109] | 79% | 99% | 100%
CCCCCCc1cc2cc(-c3nc4ccccc4[nH]3)c(=Nc3ccccc3C)oc2cc1O [MMV666597] | 85.4% | 102% | 103%

From PMC4890880 (ACS infectious diseases, 2016)
